The values that follow are results of earlier work, collected in patent US20070191377A1, “Methods for treating blood disorders with nitric oxide donor compounds” (NitroMed, Inc., priority 2004, published 2007).

As to `O=[N+]([O-])O[C@H]1CO[C@H]2[C@@H]1OC[C@H]2O[N+](=O)[O-]` [isosorbide dinitrate, 1,4,3,6-dianhydro-D-glucitol-2,5-dinitrate], the “solubility in organic solvents” value (organic solvents such as ethanol, ether and chloroform) is listed as “freely soluble”. In addition, the solubility in water result (water) is “sparingly soluble”.
